According to patent publication US10399988B2, “4-aminopyrazolo[3,4-d]pyrimidinylazabicyclo derivatives and pharmaceutical composition comprising the same” (Daewoong Pharmaceutical Co., Ltd., priority 2016, dated 2019):
Where a name gives a salt, the structure may show the parent alone.

The molecules below were run against BTK (Homo sapiens, UniProt Q06187) (assay: Inhibitory activity against BTK (ADP-Glo + BTK Kinase enzyme system kit)).
BTK, sequence (Q06187 whole entry): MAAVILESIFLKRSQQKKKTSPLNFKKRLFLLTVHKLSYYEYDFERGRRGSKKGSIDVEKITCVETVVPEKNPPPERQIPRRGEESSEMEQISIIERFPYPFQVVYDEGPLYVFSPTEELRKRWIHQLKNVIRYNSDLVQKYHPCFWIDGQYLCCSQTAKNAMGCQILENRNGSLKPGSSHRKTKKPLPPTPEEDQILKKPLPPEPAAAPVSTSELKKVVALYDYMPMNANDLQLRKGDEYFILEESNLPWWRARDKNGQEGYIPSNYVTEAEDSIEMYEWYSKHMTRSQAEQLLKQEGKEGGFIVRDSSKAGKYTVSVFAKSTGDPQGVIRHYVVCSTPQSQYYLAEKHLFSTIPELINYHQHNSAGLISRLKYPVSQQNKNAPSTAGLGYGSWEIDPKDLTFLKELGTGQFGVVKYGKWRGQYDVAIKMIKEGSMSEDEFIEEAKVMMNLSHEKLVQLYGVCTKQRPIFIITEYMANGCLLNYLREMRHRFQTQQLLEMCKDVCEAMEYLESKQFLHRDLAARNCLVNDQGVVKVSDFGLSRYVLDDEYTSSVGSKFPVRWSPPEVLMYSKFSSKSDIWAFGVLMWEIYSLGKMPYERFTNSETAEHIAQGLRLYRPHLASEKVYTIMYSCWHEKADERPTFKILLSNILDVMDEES
In the case of C=CC(=O)N1CC2CC1CC2n1nc(-c2ccc(C(=O)Nc3ccccc3)cc2)c2c(N)ncnc21 (stereo not drawn) [Ex. 23, 4-(1-(2-acryloyl-2-azabicyclo[2.2.1]heptan-5-yl)-4-amino-1H-pyrazolo[3,4-d]pyrimidin-3-yl)-N-phenylbenzamide], the IC50 is reported as 78.8 nM. CN(C)C/C=C/C(=O)N1CC2CC1C(n1nc(-c3ccc(C(=O)Nc4ccccn4)cc3)c3c(N)ncnc31)C2 (stereo not drawn) [Ex. 60, (E)-4-(4-amino-1-(2-(4-(dimethylamino)but-2-enoyl)-2-azabicyclo[2.2.1]heptan-6-yl)-1H-pyrazolo[3,4-d]pyrimidin-3-yl)-N-(pyridin-2-yl)benzamide] gave an IC50 of 36.4 nM. C=CC(=O)N1CC2CC1C(n1nc(-c3ccc(C(=O)Nc4cccc(CC)c4)cc3)c3c(N)ncnc31)C2 (stereo not drawn) [Ex. 46, 4-(1-(2-acryloyl-2-azabicyclo[2.2.1]heptan-6-yl)-4-amino-1H-pyrazolo[3,4-d]pyrimidin-3-yl)-N-(3-ethylphenyl)benzamide] showed an IC50 of 72 nM. For C=CC(=O)N1CC2CC1C(n1nc(-c3ccc(NC(=O)c4ccccc4)cc3)c3c(N)ncnc31)C2 (stereo not drawn) [Ex. 37, N-(4-(1-(2-acryloyl-2-azabicyclo[2.2.1]heptan-6-yl)-4-amino-1H-pyrazolo[3,4-d]pyrimidin-3-yl)phenyl)benzamide], the IC50 was 5.1 nM. C=CC(=O)N1CC2CC1C(n1nc(-c3ccc(C(=O)Nc4cccc(C(C)C)c4)cc3)c3c(N)ncnc31)C2 (stereo not drawn) [Ex. 47, 4-(1-(2-acryloyl-2-azabicyclo[2.2.1]heptan-6-yl)-4-amino-1H-pyrazolo[3,4-d]pyrimidin-3-yl)-N-(3-isopropylphenyl)benzamide] was tested, and the IC50 was 10.9 nM. For C=CC(=O)N1CC2CC1C(n1nc(-c3ccc(C(=O)Nc4cccc(C(F)(F)F)n4)cc3)c3c(N)ncnc31)C2 (stereo not drawn) [Ex. 70, 4-(1-(2-acryloyl-2-azabicyclo[2.2.1]heptan-6-yl)-4-amino-1H-pyrazolo[3,4-d]pyrimidin-3-yl)-N-(6-(trifluoromethyl)pyridin-2-yl)benzamide], the IC50 was 6.3 nM. C#CC(=O)N1CC2CC1C(n1nc(-c3cccc(C(=O)Nc4ccc(C(C)C)cc4)c3)c3c(N)ncnc31)C2 (stereo not drawn) [Ex. 7, 3-(4-amino-1-(2-propioloyl-2-azabicyclo[2.2.1]heptan-6-yl)-1H-pyrazolo[3,4-d]pyrimidin-3-yl)-N-(4-isopropylphenyl)benzamide] showed an IC50 of 31.6 nM. Work on C=CC(=O)N1CC2CC1C(n1nc(-c3ccc(C(=O)Nc4ccccc4)cc3F)c3c(N)ncnc31)C2 (stereo not drawn) [Ex. 52, 4-(1-(2-acryloyl-2-azabicyclo[2.2.1]heptan-6-yl)-4-amino-1H-pyrazolo[3,4-d]pyrimidin-3-yl)-3-fluoro-N-phenylbenzamide] yielded an IC50 of 5.1 nM. Work on CN1CCN(C/C=C/C(=O)N2CC3CC2C(n2nc(-c4ccc(C(=O)Nc5ccccn5)cc4)c4c(N)ncnc42)C3)CC1 (stereo not drawn) [Ex. 61, (E)-4-(4-amino-1-(2-(4-(4-methylpiperazin-1-yl)but-2-enoyl)-2-azabicyclo[2.2.1]heptan-6-yl)-1H-pyrazolo[3,4-d]pyrimidin-3-yl)-N-(pyridin-2-yl)benzamide] yielded an IC50 of 136 nM. Molecule C=CC(=O)N1CC2CC1C(n1nc(-c3ccc(NC(=O)c4ccccn4)cc3)c3c(N)ncnc31)C2 (stereo not drawn) [Ex. 38, N-(4-(1-(2-acryloyl-2-azabicyclo[2.2.1]heptan-6-yl)-4-amino-1H-pyrazolo[3,4-d]pyrimidin-3-yl)phenyl)picolinamide] has an IC50 of 8.2 nM. Work on C#CC(=O)N1CC2CC1C(n1nc(-c3ccc(C(=O)Nc4cc(C(F)(F)F)ccn4)cc3)c3c(N)ncnc31)C2 (stereo not drawn) [Ex. 6, 4-(4-amino-1-(2-propioloyl-2-azabicyclo[2.2.1]heptan-6-yl)-1H-pyrazolo[3,4-d]pyrimidin-3-yl)-N-(4-(trifluoromethyl)pyridin-2-yl)benzamide] yielded an IC50 of 22.7 nM. C=CC(=O)N1C[C@@H]2C[C@H]1[C@@H](n1nc(-c3ccc(C(=O)Nc4ncccc4C(F)(F)F)cc3)c3c(N)ncnc31)C2 [Ex. 78, 4-(1-((1S,4R,6S)-2-acryloyl-2-azabicyclo[2.2.1]heptan-6-yl)-4-amino-1H-pyrazolo[3,4-d]pyrimidin-3-yl)-N-(3-(trifluoromethyl)pyridin-2-yl)benzamide] showed an IC50 of 5.2 nM. Molecule Nc1ncnc2c1c(-c1ccc(Oc3ccccc3)cc1)nn2C1CC2CC1N(C(=O)/C=C/CN1CCOCC1)C2 (stereo not drawn) [Ex. 58, (E)-1-(6-(4-amino-3-(4-phenoxyphenyl)-1H-pyrazolo[3,4-d]pyrimidin-1-yl)-2-azabicyclo[2.2.1]heptan-2-yl)-4-morpholinobut-2-en-1-one] has an IC50 of 5.3 nM. Work on Nc1ncnc2c1c(-c1ccc(Oc3ccccc3)cc1)nn2C1CC2CC1CN2C(=O)/C=C/CBr (stereo not drawn) [Ex. 65, (E)-1-(5-(4-amino-3-(4-phenoxyphenyl)-1H-pyrazolo[3,4-d]pyrimidin-1-yl)-2-azabicyclo[2.2.1]heptan-2-yl)-4-bromobut-2-en-1-one] yielded an IC50 of 6.7 nM. For C/C=C/C(=O)N1CC2CC1C(n1nc(-c3ccc(Oc4ccccc4)cc3)c3c(N)ncnc31)C2 (stereo not drawn) [Ex. 3, (E)-1-(6-(4-amino-3-(4-phenoxyphenyl)-1H-pyrazolo[3,4-d]pyrimidin-1-yl)-2-azabicyclo[2.2.1]heptan-2-yl)but-2-en-1-one], the IC50 was 202 nM. C#CC(=O)N1CC2CC1C(n1nc(-c3cccc(C(=O)Nc4ccccc4)c3)c3c(N)ncnc31)C2 (stereo not drawn) [Ex. 18, 3-(4-amino-1-(2-propioloyl-2-azabicyclo[2.2.1]heptan-6-yl)-1H-pyrazolo[3,4-d]pyrimidin-3-yl)-N-phenylbenzamide] showed an IC50 of 6.9 nM. C=CC(=O)N1CC2CC1C(n1nc(-c3ccc(Oc4cccc(C)c4)cc3)c3c(N)ncnc31)C2 (stereo not drawn) [Ex. 40, 1-(6-(4-amino-3-(4-(m-tolyloxy)phenyl)-1H-pyrazolo[3,4-d]pyrimidin-1-yl)-2-azabicyclo[2.2.1]heptan-2-yl)prop-2-en-1-one] was tested, and the IC50 was 5.5 nM. Molecule C=CC(=O)N1CC2CC1C(n1nc(-c3ccc(C(=O)Nc4ccccc4)cc3)c3c(N)ncnc31)C2 (stereo not drawn) [Ex. 19, 4-(1-(2-acryloyl-2-azabicyclo[2.2.1]heptan-6-yl)-4-amino-1H-pyrazolo[3,4-d]pyrimidin-3-yl)-N-phenylbenzamide] has an IC50 of 10.8 nM. For C=CC(=O)N1C[C@@H]2C[C@H]1[C@@H](n1nc(-c3ccc(C(=O)NC)cc3F)c3c(N)ncnc31)C2 [Ex. 79, 4-(1-((1S,4R,6S)-2-acryloyl-2-azabicyclo[2.2.1]heptan-6-yl)-4-amino-1H-pyrazolo[3,4-d]pyrimidin-3-yl)-3-fluoro-N-methylbenzamide], the IC50 was 77.1 nM. Nc1ncnc2c1c(-c1ccc(Oc3ccccc3)cc1)nn2C1CC2CC1N(C(=O)C#CC1CC1)C2 (stereo not drawn) [Ex. 28, 1-(6-(4-amino-3-(4-phenoxyphenyl)-1H-pyrazolo[3,4-d]pyrimidin-1-yl)-2-azabicyclo[2.2.1]heptan-2-yl)-3-cyclopropylprop-2-yn-1-one] gave an IC50 of 25.2 nM. Work on C#CC(=O)N1C[C@@H]2C[C@H]1C[C@H]2n1nc(-c2ccc(Oc3ccccc3)cc2)c2c(N)ncnc21 [Ex. 13, 1-((1S,4S,5R)-5-(4-amino-3-(4-phenoxyphenyl)-1H-pyrazolo[3,4-d]pyrimidin-1-yl)-2-azabicyclo[2.2.1]heptan-2-yl)prop-2-yn-1-one] yielded an IC50 of 2 nM. C=CC(=O)N1CC2CC1C(n1nc(-c3ccc(C(=O)Nc4cnn(C)c4)cc3)c3c(N)ncnc31)C2 (stereo not drawn) [Ex. 56, 4-(1-(2-acryloyl-2-azabicyclo[2.2.1]heptan-6-yl)-4-amino-1H-pyrazolo[3,4-d]pyrimidin-3-yl)-N-(1-methyl-1H-pyrazol-4-yl)benzamide] was tested, and the IC50 was 143 nM. C=CC(=O)N1CC2CC1C(n1nc(-c3ccc(Oc4cccc(N)c4)cc3)c3c(N)ncnc31)C2 (stereo not drawn) [Ex. 51, 1-(6-(4-amino-3-(4-(3-aminophenoxy)phenyl)-1H-pyrazolo[3,4-d]pyrimidin-1-yl)-2-azabicyclo[2.2.1]heptan-2-yl)prop-2-en-1-one hydrochloride] showed an IC50 of 107 nM. C=CC(=O)N1CC2CC1C(n1nc(-c3ccc(C(=O)Nc4cc(C(F)(F)F)ccn4)cc3)c3c(N)ncnc31)C2 (stereo not drawn) [Ex. 29, 4-(1-(2-acryloyl-2-azabicyclo[2.2.1]heptan-6-yl)-4-amino-1H-pyrazolo[3,4-d]pyrimidin-3-yl)-N-(4-(trifluoromethyl)pyridin-2-yl)benzamide] gave an IC50 of 16.9 nM. For C=CC(=O)N1CC2CC1C(n1nc(-c3ccc(NC(=O)c4cccc(N(C)C)c4)cc3)c3c(N)ncnc31)C2 (stereo not drawn) [Ex. 50, N-(4-(1-(2-acryloyl-2-azabicyclo[2.2.1]heptan-6-yl)-4-amino-1H-pyrazolo[3,4-d]pyrimidin-3-yl)phenyl)-3-(dimethylamino)benzamide], the IC50 was 28.6 nM. With C=CC(=O)N1CC2CC1C(n1nc(-c3ccc(C(=O)Nc4ccccc4N(C)C)cc3)c3c(N)ncnc31)C2 (stereo not drawn) [Ex. 55, 4-(1-(2-acryloyl-2-azabicyclo[2.2.1]heptan-6-yl)-4-amino-1H-pyrazolo[3,4-d]pyrimidin-3-yl)-N-(2-(dimethylamino)phenyl)benzamide] the IC50 was 8.5 nM. CCC#CC(=O)N1CC2CC1C(n1nc(-c3ccc(Oc4ccccc4)cc3)c3c(N)ncnc31)C2 (stereo not drawn) [Ex. 16, 1-(6-(4-amino-3-(4-phenoxyphenyl)-1H-pyrazolo[3,4-d]pyrimidin-1-yl)-2-azabicyclo[2.2.1]heptan-2-yl)pent-2-yn-1-one] was tested, and the IC50 was > 1000 nM. C=CC(=O)N1C[C@@H]2C[C@H]1[C@@H](n1nc(-c3ccc(C(=O)Nc4cc(F)ccn4)cc3F)c3c(N)ncnc31)C2 [Ex. 73, 4-(1-((1S,4R,6S)-2-acryloyl-2-azabicyclo[2.2.1]heptan-6-yl)-4-amino-1H-pyrazolo[3,4-d]pyrimidin-3-yl)-3-fluoro-N-(4-fluoropyridin-2-yl)benzamide] showed an IC50 of 1.1 nM. CN(C)C/C=C/C(=O)N1CC2CC1C(n1nc(-c3ccc(Oc4ccccc4)cc3)c3c(N)ncnc31)C2 (stereo not drawn) [Ex. 45, (E)-1-(6-(4-amino-3-(4-phenoxyphenyl)-1H-pyrazolo[3,4-d]pyrimidin-1-yl)-2-azabicyclo[2.2.1]heptan-2-yl)-4-(dimethylamino)but-2-en-1-one] showed an IC50 of 11.4 nM. For C=CC(=O)N1CC2CC1C(n1nc(-c3ccc(NC(=O)Nc4ccccc4)cc3)c3c(N)ncnc31)C2 (stereo not drawn) [Ex. 39, 1-(4-(1-(2-acryloyl-2-azabicyclo[2.2.1]heptan-6-yl)-4-amino-1H-pyrazolo[3,4-d]pyrimidin-3-yl)phenyl)-3-phenylurea], the IC50 was 15.2 nM.
